From US20110190365A1, “Insecticidal 4-phenyl-1H-pyrazoles” (Bayer Crop Science AG, priority 2008, published 2011)

Assay: log P by HPLC on a reversed-phase column (C18), EEC Directive 79/831 Annex V.A8
Format: physicochemical
Details: HCOOH
Protocol: The stated log P values were determined in accordance with EEC Directive 79/831 Annex V.A8 by HPLC (High Performance Liquid Chromatography) using a reversed-phase column (C18).

| SMILES | log P (HCOOH) |
| --- | --- |
| CC(NC(=O)c1ccc(-n2nc(C(F)(F)F)c(-c3cccc(Cl)c3)c2N)cc1)c1ccccn1 (stereo not drawn) [I-A-Q2-087] | I-A-Q2-087: log P (HCOOH): 2.80 |
| Cc1cc(-n2nc(C(F)(F)F)c(-c3cccc(Br)c3)c2N)ccc1C(=O)NC(C)c1ccccn1 (stereo not drawn) [I-A-Q2-418] | I-A-Q2-418: log P (HCOOH): 3.22 |
| Cc1cc(-n2nc(C(F)(F)F)c(-c3cc(Cl)cc(Cl)c3)c2[S+](C)[O-])ccc1C(=O)NCc1ccccn1 (stereo not drawn) [I-A-Q2-063, 4-[4-(3,5-Dichlorophenyl)-5-methanesulphinyl-3-trifluoromethylpyrazol-1-yl]-2-methyl-N-pyridin-2-ylmethylbenzamide] | I-A-Q2-063: log P (HCOOH): 3.11 |
| Cc1cc(-n2nc(C(F)(F)F)c(-c3cc(Cl)cc(Cl)c3)c2N)ccc1C(=O)NCCN1CCOCC1 [I-A-Q2-264] | I-A-Q2-264: log P (HCOOH): 1.99 |
| CCC(NC(=O)c1ccc(-n2nc(C(F)(F)F)c(-c3cc(Cl)cc(Cl)c3)c2N)cc1C)C(F)(F)F (stereo not drawn) [I-A-Q2-200] | I-A-Q2-200: log P (HCOOH): 4.82 |
| Cc1cc(-n2nc(C(F)(F)F)c(-c3ccc(I)cc3)c2N)ccc1C(=O)NCc1ccccn1 [I-A-Q2-356] | I-A-Q2-356: log P (HCOOH): 2.93 |
| Cc1cc(-n2nc(C(F)(F)Oc3cc(Cl)ccc3Cl)c(-c3cc(Cl)cc(C(F)(F)F)c3)c2N)ccc1C(=O)NCC(F)(F)C(F)F [I-A-Q2-296] | I-A-Q2-296: log P (HCOOH): 5.14 |
| Cc1cc(-n2nc(C(F)(F)F)c(-c3ccc(Cl)cc3Cl)c2N)ccc1C(=O)NCc1ncccn1 [I-A-Q2-411] | I-A-Q2-411: log P (HCOOH): 3.17 |
| Cc1cc(-n2nc(C(F)(F)F)c(-c3cc(Cl)cc(Cl)c3)c2N)ccc1C(=O)NC(Cc1ccccn1)C(F)(F)F (stereo not drawn) [I-A-Q2-049] | I-A-Q2-049: log P (HCOOH): 4.28 |
| CNC(=O)c1ccc(-n2nc(C(F)(F)F)c(-c3ccccc3Cl)c2N)cc1 [I-A-Q2-082] | I-A-Q2-082: log P (HCOOH): 2.46 |
| Cc1cc(-n2nc(C(F)(F)F)c(-c3cc(F)cc(Cl)c3)c2N)ccc1C(=O)NCC(F)(F)C(F)F [I-A-Q2-301] | I-A-Q2-301: log P (HCOOH): 3.75 |
| Cc1cc(-n2nc(C(F)(F)F)c(-c3cc(Cl)cc(Cl)c3)c2N)ccc1C(=O)NC(C)c1ccc(Cl)nc1 (stereo not drawn) [I-A-Q2-248] | I-A-Q2-248: log P (HCOOH): 4.34 |
| Cc1cc(-n2nc(C(F)(F)F)c(-c3ccc(Cl)c(F)c3)c2N)ccc1C(=O)NCc1ccccn1 [I-A-Q2-353] | I-A-Q2-353: log P (HCOOH): 2.84 |
| CCc1nn(-c2ccc(C(=O)NCc3ccccn3)c(C)c2)c(N)c1-c1ccc(Cl)cc1 [I-A-Q2-379] | I-A-Q2-379: log P (HCOOH): 2.20 |
| Nc1c(-c2cc(Cl)cc(Cl)c2)c(C(F)(F)F)nn1-c1ccc(C(=O)NCC(F)(F)F)cn1 [I-A-Q2-101] | I-A-Q2-101: log P (HCOOH): 4.71 |
| Cc1cc(-n2nc(C(F)(F)F)c(-c3cc(Cl)cc(Cl)c3)c2N)ccc1C(=O)NCc1ncccc1C [I-A-Q2-029] | I-A-Q2-029: log P (HCOOH): 3.24 |
| Cc1cc(-n2nc(C(F)(F)F)c(-c3cc(Cl)cc(Cl)c3)c2N)ccc1C(=O)NCCc1ccccn1 [I-A-Q2-226] | I-A-Q2-226: log P (HCOOH): 2.50 |
| Cc1cc(-n2nc(C)c(-c3c(F)cc(F)cc3F)c2N)ccc1C(=O)NCC(F)(F)C(F)F [I-A-Q2-328] | I-A-Q2-328: log P (HCOOH): 2.48 |
| CC(NC(=O)c1ccc(-n2nc(C(F)(F)F)c(-c3ccc(Br)cc3)c2N)cc1)c1ccccn1 (stereo not drawn) [I-A-Q2-192] | I-A-Q2-192: log P (HCOOH): 2.89 |
| Cc1cc(-n2nc(C3CCCO3)c(-c3cc(Cl)cc(C(F)(F)F)c3)c2N)ccc1C(=O)NCC(F)(F)C(F)F (stereo not drawn) [I-A-Q2-290] | I-A-Q2-290: log P (HCOOH): 4.00 |
| COc1cc(-c2c(C(F)(F)F)nn(-c3ccc(C(=O)NCC(F)(F)C(F)F)c(C)c3)c2N)cc(Cl)c1OC [I-A-Q2-292] | I-A-Q2-292: log P (HCOOH): 3.53 |
| CCOC(=O)N1CCC(NC(=O)c2ccc(-n3nc(C(F)(F)F)c(-c4cc(Cl)cc(Cl)c4)c3N)cc2C)CC1 [I-A-Q2-204] | I-A-Q2-204: log P (HCOOH): 4.22 |
| Nc1c(-c2cccc(Br)c2)c(C(F)(F)F)nn1-c1ccc(C(=O)NCc2ccccn2)cc1 [I-A-Q2-174] | I-A-Q2-174: log P (HCOOH): 2.50 |

| SMILES | log P (HCOOH) |
| --- | --- |
| Cc1cc(-n2nc(C(F)(F)F)c(-c3cc(Cl)cc(Cl)c3)c2N)ccc1C(=O)NCc1ccncn1 [I-A-Q2-260] | I-A-Q2-260: log P (HCOOH): 3.33 |
| Cc1cc(C)nc(CNC(=O)c2ccc(-n3nc(C(F)(F)F)c(-c4cc(Cl)cc(Cl)c4)c3N)cc2C)n1 [I-A-Q2-245] | I-A-Q2-245: log P (HCOOH): 3.89 |
| CC(NC(=O)c1ccc(-n2nc(C(F)(F)F)c(-c3cc(F)cc(Cl)c3)c2N)cc1)c1ccccc1 (stereo not drawn) [I-A-Q2-090] | I-A-Q2-090: log P (HCOOH): 4.11 |
| Cc1cc(-n2nc(C)c(-c3cc(F)ccc3F)c2N)ccc1C(=O)NCc1ccccn1 [I-A-Q2-372] | I-A-Q2-372: log P (HCOOH): 1.61 |
| Cc1cc(-n2nc(C(F)(F)c3ccc(C(F)(F)F)cc3)c(-c3cc(Cl)cc(C(F)(F)F)c3)c2N)ccc1C(=O)NCC(F)(F)C(F)F [I-A-Q2-289] | I-A-Q2-289: log P (HCOOH): 4.95 |
| Nc1c(-c2ccc(Cl)cc2)c(-c2ccccc2)nn1-c1ccc(C(=O)NCc2ncccn2)cc1 [I-A-Q2-076] | I-A-Q2-076: log P (HCOOH): 2.89 |
| Cc1cc(-n2nc(C(F)(F)F)c(Br)c2N)ccc1C(=O)NCC(F)(F)C(F)F [XI-A-092] | XI-A-092: log P (HCOOH): 3.03 |
| Cc1cc(-n2nc(C(F)(F)F)c(-c3cc(Cl)cc(Cl)c3)c2N)ccc1C(=O)NCC(F)(F)C(F)(F)F [I-A-Q2-269] | I-A-Q2-269: log P (HCOOH): 4.57 |
| CCOC(=O)c1ccc(-n2nc(C(F)(F)F)c(Br)c2N)cc1 [XI-A-018] | XI-A-018: log P (HCOOH): 3.60 |
| Nc1c(-c2ccc(Cl)c(F)c2)c(C(F)(F)F)nn1-c1ccc(C(=O)NCc2ccccn2)cc1 [I-A-Q2-168] | I-A-Q2-168: log P (HCOOH): 2.61 |
| CC(NC(=O)c1ccc(-n2nc(C(F)(F)F)c(-c3cc(F)cc(Cl)c3)c2N)cc1)c1ccccn1 (stereo not drawn) [I-A-Q2-088] | I-A-Q2-088: log P (HCOOH): 2.99 |
| Nc1c(Cl)c(C(F)(F)F)nn1-c1ccc(C(=O)O)cc1 [XI-A-043] | XI-A-043: log P (HCOOH): 2.34 |
| Cc1cc(-n2nc(C)c(-c3ccc(Cl)cc3)c2N)ccc1C(=O)NCC(F)(F)C(F)F [I-A-Q2-325] | I-A-Q2-325: log P (HCOOH): 2.85 |
| CC(C)CC(NC(=O)c1ccc(-n2nc(C(F)(F)F)c(-c3cc(Cl)cc(Cl)c3)c2N)cc1)C(F)(F)F (stereo not drawn) [I-A-Q2-070] | I-A-Q2-070: log P (HCOOH): 5.25 |
| Cc1cc(-n2nc(C(F)(F)F)c(-c3cc(Cl)cc(Cl)c3)c2N)ccc1C(=O)NC(c1ccc(N(C)C)cc1)C(F)(F)F (stereo not drawn) [I-A-Q2-246] | I-A-Q2-246: log P (HCOOH): 5.02 |
| Cc1cc(-n2nc(C(F)(F)F)c(-c3cc(Cl)cc(Cl)c3)c2N)ccc1C(=O)N(C)C(C)c1ccccn1 (stereo not drawn) [I-A-Q2-210] | I-A-Q2-210: log P (HCOOH): 4.28 |
| Cc1cc(-n2nc(C(F)(F)C(F)(F)F)c(-c3cc(C(F)(F)F)cc(C(F)(F)F)c3)c2N)ccc1C(=O)NCc1ccccn1 [I-A-Q2-383] | I-A-Q2-383: log P (HCOOH): 3.94 |
| Nc1c(-c2cccc(Cl)c2)c(C(F)(F)F)nn1-c1ccc(C(=O)NC2CC2)cc1 [I-A-Q2-091] | I-A-Q2-091: log P (HCOOH): 3.09 |
| Nc1c(-c2cc(Cl)cc(Cl)c2)c(C(F)(F)F)nn1-c1ccc(C(=O)NCC(F)(F)C(F)F)c(C(F)(F)F)c1 [I-A-Q2-385] | I-A-Q2-385: log P (HCOOH): 4.60 |
| Cc1cc(-n2nc(C(F)(F)F)c(-c3cc(Cl)cc(Cl)c3)c2N)ccc1C(=O)NCc1ncc(Cl)cc1C(F)(F)F [I-A-Q2-235] | I-A-Q2-235: log P (HCOOH): 4.95 |
| Nc1c(Br)c(C(F)(F)F)nn1-c1ccc(C(=O)O)cc1 [XI-A-038] | XI-A-038: log P (HCOOH): 2.38 |
| Cc1cc(-n2nc(C(F)(F)F)c(-c3cc(Cl)cc(Cl)c3)c2N)ccc1C(=O)NCc1ccccc1 [I-A-Q2-271] | I-A-Q2-271: log P (HCOOH): 4.45 |

Same assay, conditions: HCOOH; Table 4, compounds of formula I-A-Q4

| SMILES | log P (HCOOH) |
| --- | --- |
| Nc1c(-c2cc(Cl)cc(Cl)c2)c(C(F)(F)F)nn1-c1ccc(C(=O)O)cn1 [I-A-Q4-064] | I-A-Q4-064: log P (HCOOH): 4.23 |
| Cc1nn(-c2ccc(Cl)cn2)c(N)c1-c1cccc(Cl)c1 [I-A-Q4-034] | I-A-Q4-034: log P (HCOOH): 4.40 |
| COC(=O)c1cnc(-n2nc(C(F)(F)F)c(-c3cc(Cl)cc(Cl)c3)c2N)nc1C(F)(F)F [I-A-Q4-063] | I-A-Q4-063: log P (HCOOH): 4.66 |
| Cc1nn(-c2ccc(Cl)cn2)c(N)c1-c1c(F)cccc1F [I-A-Q4-036] | I-A-Q4-036: log P (HCOOH): 3.58 |
| Cc1nn(-c2ccc(Cl)cn2)c(N)c1-c1c(F)cccc1Cl [I-A-Q4-031] | I-A-Q4-031: log P (HCOOH): 3.78 |
| Nc1c(-c2ccc(Cl)cc2)c(C(F)(F)C(F)(F)F)nn1-c1ccc(Cl)cn1 [I-A-Q4-058] | I-A-Q4-058: log P (HCOOH): 5.44 |
| Nc1c(-c2ccc(F)c(Cl)c2)c(C(F)(F)F)nn1-c1ccc(C(=O)O)cc1 [I-A-Q4-094] | I-A-Q4-094: log P (HCOOH): 3.31 |
| Nc1c(-c2cc(Cl)cc(Cl)c2)c(C(F)(F)F)nn1-c1ccc(C(=O)O)cc1 [I-A-Q4-087] | I-A-Q4-087: log P (HCOOH): 3.79 |
| COC(=O)c1ccc(-n2nc(C(F)(F)F)c(-c3cc(Cl)cc(Cl)c3)c2N)cc1C(F)(F)F [I-A-Q4-112] | I-A-Q4-112: log P (HCOOH): 5.21 |
| Cc1nn(-c2ccc(Cl)cn2)c(N)c1-c1cc(F)ccc1F [I-A-Q4-033] | I-A-Q4-033: log P (HCOOH): 3.84 |

Same assay, conditions: HPLC, reversed-phase C18, mobile phase with formic acid

| SMILES | log P (HCOOH) |
| --- | --- |
| N#Cc1cc(-n2nc(C(F)(F)F)c(-c3ccc(F)c(F)c3)c2N)ccc1-n1cncn1 [I-A-Q1-044] | I-A-Q1-044: log P (HCOOH): 3.10 |
| N#Cc1cc(-n2nc(-c3ccccc3)c(-c3ccc(Cl)cc3)c2N)ccc1-n1cncn1 [I-A-Q1-063] | I-A-Q1-063: log P (HCOOH): 3.53 |
| N#Cc1cc(-n2nc(C(F)(F)F)c(-c3ccc(F)c(Cl)c3)c2N)ccc1-n1cncn1 [I-A-Q1-036] | I-A-Q1-036: log P (HCOOH): 3.24 |
| N#Cc1cc(-n2nc(C(F)F)c(-c3ccc(F)cc3F)c2N)ccc1-n1cncn1 [I-A-Q1-048] | I-A-Q1-048: log P (HCOOH): 2.39 |

Same assay, conditions: HPLC, reversed-phase C18, mobile phase with formic acid; read-out: log P (HCOOH)

| SMILES | chromatographic logP |
| --- | --- |
| Cc1cc(-n2nc(C(F)(F)F)c(-c3cc(Cl)cc(Cl)c3)c2[S+](C)[O-])ccc1C(=O)NCc1ccccn1 (stereo not drawn) [I-A-Q2-063, 4-[4-(3,5-Dichlorophenyl)-5-methanesulphinyl-3-trifluoromethylpyrazol-1-yl]-2-methyl-N-pyridin-2-ylmethylbenzamide] | 3.11 |
